“Also recorded” adds a separate entry of the source.

One data set relates to CPP32. The data set is described as follows: Apaf-2 activity: recombining with phosphocellulose flow through fraction (Apaf-1) and 35S-labeled CPP32. In kind it is biochemical, human. Conditions: one unit = cleavage of 1% of the input substrate in 60 min. The protocol:
FIG. 3 illustrates fractionation and reconstitution of dATP-dependent activation of CPP32 by phosphocellulose chromatography. HeLa cell S-100 was subjected to phosphocellulose chromatography and the column flow through and bound material were collected as described in the Examples. Aliquots (10 μl) of HeLa S-100 (50 μg) (lanes 1 and 2), phosphocellulose flow through fraction (PC-FT) (lanes 3 and 4), phosphocellulose bound fraction (PC-B) (lanes 5 and 6), and the mixture of phosphocellulose flow through and bound material (lanes 7 and 8) were incubated with aliquots of 3 μl in vitro translated, ^35S-labeled CPP32 at 30° C. for 1 hr in the absence (lanes 1,3,5,7) or presence (lanes 2,4,6,8) of 1 mM dATP. The samples were subjected to SDS-PAGE, transferred to a nitrocellulose filter, and the filter was exposed to film for 16 hours at room temperature.
The Apaf-2 activity that bound to the phosphocellulose column was purified through the Mono S column as described in Example 7. […] In FIG. 4B, aliquots (30 μl) of the Mono-S fractions were subjected to 15% SDS-PAGE and the proteins were visualized by silver staining.
Aliquots of 0.2 μg of Apaf-2 purified through the Mono S column (lanes 1, 2), cytochrome c from bovine heart (lanes 3, 4), and rat liver (lanes 5, 6) were incubated with aliquots of 10 μl phosphocellulose flowthrough fraction and 3 μl in vitro translated, 35S-labeled CPP32 at 30° C. for 1 hr in a final volume of 20 μl buffer A in the absence (lanes 1,3,5) or presence of (lanes 2, 4, 6) 1 mM dATP. Samples were subjected to SDS-PAGE and transferred to a nitrocellulose filter which was then exposed to a film for 16 hr at room temperature.
To isolate the protein(s) required for the activation of CPP32, HeLa S-100 was loaded onto a phosphocellulose column, and the flow-through and bound fractions were collected. […] When the flowthrough and bound fractions were mixed, CPP32-activating activity was restored (lanes 7-8). […] The factor(s) that flow through the phosphocellulose column are designated apoptotic protease activating factor-1 (Apaf-1) and the factor that bound to the column is designated apoptotic protease activating factor-2 (Apaf-2). It is understood that “Apaf-1” may represent more than one protein or it may represent a combination of protein(s) and other factors.
Apaf-2 activity was assayed by recombining with Apaf-1 after purification by the following steps. First, the Apaf-2 fraction was subjected to 50% ammonium sulfate precipitation. All of the activity remained in the supernatant while most of the protein precipitated (Table I). The supernatant was loaded onto a phenyl-sepharose (hydrophobic interaction) column and the activity was eluted with 1 M ammonium sulfate. The eluate was passed through a gel filtration column; active fractions were subjected to sequential Mono Q (anion exchange) and Mono S (cation exchange) chromatography. The Apaf-2 activity flowed through the Mono Q column, and the flow through was directly loaded onto the Mono S column. Bound Apaf-2 activity was then eluted with a 100-300 mM NaCl linear salt gradient. The fractions from the Mono S column were collected and assayed. […] The active fractions were analyzed by SDS-PAGE (FIG. 4B). A protein of apparent molecular mass of 15 kDa was co-eluted with the activity. No other proteins were detected by silver staining in the active Apaf-2 fractions.
CPP32 was translated and purified as described above. […]
Turning to “Mono Q/Mono-S: Apaf-2 purification step 6: Apaf-2 purified through the Mono S column”, the “Specific Activity” value is on record as 263150 units/mg and the “Total Activity” value is 20000 unit.

For another data set, the system named is CPP32. As to the kind of experiment: Assay for dATP-dependent activation of CPP32 protease (cleavage of in vitro translated 35S-labeled CPP32 in HeLa S-100). The class given is biochemical, hamster. The conditions noted are these: 1 mM nucleotide, 30° C., 1 hr. On the procedure:
The samples were subjected to SDS-PAGE and transferred to a nitrocellulose filter. The filter was exposed to film for 16 hours at room temperature. In FIG. 2B, a 50 μl aliquot of HeLa S-100 (250 μg) was incubated with each aliquot of 6 μl hamster liver nuclei at 37° C. for 2 hr in the presence of 1 mM indicated nucleotide. The DNA was isolated, analyzed by 2% agarose gel electrophoresis and visualized by ethidium bromide staining.
To test the nucleotide specificity for activation of CPP32 and DNA fragmentation, HeLa cell S-100 was incubated with in vitro translated, ^35S-labeled CPP32 in the presence of 1 mM of various nucleotides (FIG. 2A).
A PCR fragment encoding amino acids 29-277 of hamster CPP32 [Wang et al. (1996) supra] was cloned into NdeI and BamHI sites of pET 15b vector (Novagen, Madison, Wis.). The resulting fusion protein of six histidines with hamster CPP32 (amino acids 29-277) was translated in a TNT T7 transcription/translation kit (Promega, Madison, Wis.) in the presence of ^35S-methionine according to the manufacturer's instructions. The translated protein was passed through a 1 ml nickel affirmity column (Qiagen, Chatsworth, Calif.) equilibrated with buffer A. After washing the column with 10 ml of buffer A, the translated CPP32 was eluted with buffer A containing 250 mM imidazole. Human SREBP-2 was translated in a TNT SP6 transcription/translation kit as described [Wang et al. (1995) [Hua et al. (1993) Proc. Natl. Acad. Sci. USA 90, 11603-11607]. Full length human PARP cDNA [Chemey et al. (1987) Proc. Natl. Acad. Sci. USA 84, 8370-8374] was cloned into SmaI and EcoRI sites of pBK-CMV vector (Stratagene, La Jolla, Calif.) and translated in a TNT T7 transcription/translation kit [Promega, Madison, Wis.]. The translated SREBP-2 and PARP (200 μl each) were purified by passing each translation mixture through a 10-ml Sephadex G-25 gel-filtration column equilibrated with buffer A. The translated proteins contained within the exclusion volume of the column were collected.
CPP32 was translated and purified as described above. Aliquot of 3 μl of the in vitro translated CPP32 was incubated with the indicated protein fraction, nucleotides, and 1 mM additional MgCl2 at 30° C. for 1 hour in a final volume of 20 μl of buffer A. At the end of the incubation, 7 μl of 4×SDS sample buffer was added to each reaction. After boiling for 3 min, each sample was subjected to a 15% SDS-polyacrylamide gel electrophoresis (SDS-PAGE). The gel was transferred to a nitrocellulose filter which was subsequently exposed to a Kodak X-OMAT AR X-ray film (Eastman Kodak, Rochester, N.Y.) for 16 hr at room temperature.
As for `Nc1ncnc2c1ncn2[C@@H]1O[C@H](COP(=O)(O)OP(=O)(O)O)[C@@H](O)[C@H]1O` [ADP], the “cleavage of 35S-labeled CPP32 (nucleotide specificity)” value (“cleavage of 35S-labeled CPP32” for short) is reported as “did not replace dATP”.
The same measure, in the same setting: under `Nc1ccn([C@H]2C[C@H](O)[C@@H](COP(=O)(O)OP(=O)(O)OP(=O)(O)O)O2)c(=O)n1` [dCTP] stands “did not replace dATP”.
Consider `O=c1ccn([C@@H]2O[C@H](COP(=O)(O)OP(=O)(O)OP(=O)(O)O)[C@@H](O)[C@H]2O)c(=O)[nH]1` [UTP], for which the “cleavage of 35S-labeled CPP32” value is “did not replace dATP”.
In the case of `Cc1cn([C@H]2C[C@H](O)[C@@H](COP(=O)(O)OP(=O)(O)OP(=O)(O)O)O2)c(=O)[nH]c1=O` [dTTP], the “cleavage of 35S-labeled CPP32” value was “did not replace dATP”.
As for `Nc1ncnc2c1ncn2[C@H]1C[C@H](O)[C@@H](COP(=O)(O)O)O1` [dAMP], the “cleavage of 35S-labeled CPP32” value is recorded as “did not replace dATP”.
Same read-out and setting: to `Nc1ncnc2c1ncn2[C@H]1C[C@H](O)[C@@H](CO)O1` [deoxyadenosine] belongs “did not replace dATP”; to `Nc1ncnc2c1ncn2[C@@H]1O[C@H](COP(=O)(O)O)[C@@H](O)[C@H]1O` [AMP], “did not replace dATP”.
As to `Nc1ncnc2c1ncn2[C@H]1C[C@H](O)[C@@H](COP(=O)(O)OP(=O)(O)O)O1` [dADP], the “cleavage of 35S-labeled CPP32” value was “Cleavage occurred; also recorded: can substitute for dATP”.
Consider `Nc1nc2c(ncn2[C@H]2C[C@H](O)[C@@H](COP(=O)(O)OP(=O)(O)OP(=O)(O)O)O2)c(=O)[nH]1` [dGTP], for which the “cleavage of 35S-labeled CPP32” value is on record as “did not replace dATP”.
As for `Nc1nc2c(ncn2[C@@H]2O[C@H](COP(=O)(O)OP(=O)(O)OP(=O)(O)O)[C@@H](O)[C@H]2O)c(=O)[nH]1` [GTP], the “cleavage of 35S-labeled CPP32” value is “did not replace dATP”.
On the same count and under the same terms, to `Nc1ccn([C@@H]2O[C@H](COP(=O)(O)OP(=O)(O)OP(=O)(O)O)[C@@H](O)[C@H]2O)c(=O)n1` [CTP] belongs “did not replace dATP”; to `Nc1ncnc2c1ncn2[C@@H]1O[C@H](CO)[C@@H](O)[C@H]1O` [adenosine], “did not replace dATP”.

These data come from US6558900B2, “Regulation of apoptosis and in vitro model for studies thereof” (Emory University, priority 1996, dated 2003).
